Source: patent publication US3970648A, “2-[2-(5-Nitro-2-furyl)vinyl]-4-(anilino)quinazolines” (Diamond Shamrock Corporation, priority 1974, dated 1976)
Positions of bridges follow the written chain, without caps; N, C: chain ends. Non-standard residues stand in square brackets, D forms with d. Residues, ends and D or L forms follow the SMILES beside them. *: point of attachment. Ileψ(thiazoline)Cys = CC[C@H](C)[C@H](N)C1=N[C@H](C(=O)*)CS1; dOrn = NCCC[C@@H](N)C(=O)O

What was measured:
Salmonella cholerasuis = assay: Bactericide test, Salmonella cholerasuis (agar streak plate); type: cell-based; conditions: Salmonella, read-out: % Control In Vitro Growth
Text: (§1) Test formulations were examined for bactericidal and/or bacteriostatic activity against the test organisms shown in Tables A and B. These organisms were chosen as being representative of commercially important pathogens affecting animal agriculture. The antibiotic chlortetracycline was chosen as a positive control, since it has a broad spectrum of activity against a large number of organisms, and its activity can be used for comparative purposes.
(§2) Basic test formulations of the product of Examples I, II, III, and of chlortetracycline were prepared by dissolving 16 mg (0.016 g) in 2.0 ml of stock emulsifier solution (0.25% Triton X-155 in acetone by volume) and making each solution up to 50 ml with deionized water. The concentration of the test compound in the basic formulation was 320 ppm. Lower concentrations of the test compound were obtained by diluting the basic formulation with a 4% solution of the stock emulsifier in deionized water so that each dilution in the series differed only in test compound content.
(§3) Nutrient-tryptic soy agar (NTA) consisting of 2.0% Difco Bactoagar 0.8% nutrient broth (Difco), and 0.5% tryptic soy broth (Difco) was prepared and sterilized by autoclaving. A 2 ml aliquot of each test formulation was added to 8 ml of molten NTA. This mixture was then plated in a sterile polystyrene petri dish (100 × 15 mm). After the agar was set, suspensions of each of the test organisms were simultaneously streaked onto the surface of the agar. The inoculated plates were incubated for 48 hr at 28°C. The inhibition of growth of each organism was rated by visual comparison with the organism developing on non-treated agar. Growth inhibition reported as per cent control was rated in three categories as follows: 0% control, growth equivalent to that on non-treated agar; 50% control, sparse development and separated colonies; 100% control, no visible growth or development of colonies.
(§4) Test formulations of the product of Example IV were examined for bactericidal and/or bacteriostatic activity against the test organisms shown in Table B using the Bactericide Test described in Example V. The inhibition of organism growth with each diluted test formulation was rated visually by comparison with the organism developing on a non-treated control agar plate. Growth inhibition reported as per cent control was rated in three categories as follows: 0% control, growth equivalent to that on non-treated agar; 50% control is sparse development and separated colonies; and 100% control, development of individual colonies was not apparent.

Streptococcus agalactiae = assay: Bactericide test, Streptococcus agalactiae (agar streak plate); type: cell-based; conditions: 100% inhibition at lower concentrations
Text: as §1, §2, §3

Streptococcus group E = assay: Bactericide test, Streptococcus group E (agar streak plate); type: cell-based; conditions: 100% inhibition at lower concentrations
Text: as §1, §2, §3

[1] = tested on: Bordetella bronchiseptica; assay: Bactericide test, Bordetella bronchiseptica (agar streak plate); type: cell-based; conditions: 100% inhibition at lower concentrations
Text: as §1, §2, §3

[2] = tested on: Erysipelothrix rhusiopathiae; assay: Bactericide test, Erysipelothrix rhusiopathiae (agar streak plate); type: cell-based; conditions: 100% inhibition at lower concentrations
Text: as §1, §2, §3

Salmonella gallinarum = assay: Bactericide test, Salmonella gallinarum (agar streak plate); type: cell-based; conditions: Salmonella enterica, GALLINARUM, read-out: % Control In Vitro Growth
Text: as §1, §2, §3, §4

Streptococcus faecalis = assay: Bactericide test, Streptococcus faecalis (agar streak plate); type: cell-based; conditions: 100% inhibition at lower concentrations
Text: as §1, §2, §3, §4

Vibrio coli = assay: Bactericide test, Vibrio coli (agar streak plate); type: cell-based; conditions: 100% inhibition at lower concentrations
Text: as §1, §2, §3

[3] = Growth promotion in chicks, Example XI (Table V); type: in vivo, broiler cross chicks; conditions: for feed efficiency (in words) / growth rate (in words): 25 g/T; for Average 4 Week Performance: Feed Efficiency / Average 4 Week Performance: Gain / Improved Response Over Basal Ration: Feed Efficiency / Improved Response Over Basal Ration: Gain: 25 g/T in basal ration, 4 weeks
Text: (§5) This example compares growth promotion activity of the product of Example I with other growth promotants at a concentration of 25 g/T in the Basal Ration described in Example VII. The other growth promotants include the product described in Example I of U.S. Pat. No. 3,542,784 -- Burch and quinoxaline-1,4-dioxide. Day old broiler cross chicks were weight equalized into groups of eight chicks each, and four replicates of eight chicks each were fed the experimental rations over a 4 week period.
The growth promotion tests described in Example X were repeated with the exception that five replicates of eight chicks each were fed the formulations described in Table V for 4 weeks.

[4] = Growth promotion in chicks at 25 g/T, Example X (Table IV); type: in vivo, broiler cross chicks
Text: as §5

[5] = Growth promotion in chicks at low feed levels, Example VIII (Table II); type: in vivo, broiler cross chicks; conditions: 4 g/T in basal ration; 4 weeks
Text: Day old broiler cross chicks were weight equalized into groups of eight chicks each and were placed in battery brooders. The 32 chick treatment groups (four replicates) were fed one of the five rations described below for a 4 week period. Weekly measurements of body weights and feed consumption were made by replicate, and these measurements used to calculate weight gain and feed efficiency.
The basal ration was the basal ration used in Example VII above. The remaining five rations were obtained by mixing the indicated quantities of bacitracin (4 g/T), chlortetracycline (10 g/T), product of Example I (10 g/T), and product of Example III of U.S. Pat. No. 3,542,784 -- Burch (10 g/T) as growth promotants with the basal ration.

[6] = Growth promotion and feed efficiency in chicks, Example VII (Table I); type: in vivo, broiler cross chicks; conditions: bacitracin 4 g/T alone in basal ration (negative control); 4 weeks
Text: One hundred 20 day-old broiler cross chicks were weight equalized into 15 groups of eight chicks each and placed in battery brooders. The 40 chick treatment groups (five replicates) were fed the one of the three rations described below for a 4 week period. Weekly measurements of body weights and feed consumption were made by replicate, and these measurements used to calculate weight gain and feed efficiency.
The commercial type broiler starter basal ration which was used in this study was designated as the Basal Ration, and had the following composition:
The preceding basal ration was mixed with bacitracin at a level of 4 g/T as the only growth stimulant to simulate commercial practice. This mixture was designated as the Basal Ration + Bacitracin (4 g/T) and constituted the negative control in this study.
A second ration was prepared by fortifying the Basal Ration + bacitracin described above with the Product from Example I above at a level of 200 g/T, and was designated as Basal Ration + Bacitracin + Product of Example I (200 g/T). A third ration was prepared by fortifying the Basal Ration + bacitracin described above with chlortetracycline (CTC) at a level of 200 g/T, and was designated as Basal Ration + Bacitracin + Chlortetracycline (200 g/T). Chlortetracycline served as the positive control in this test because it had shown strong growth promotion in numerous previous tests at this therapeutic level.
The commercial value of the product of Example I is indicated by the fact that these significant responses were obtained in addition to the growth stimulation provided by the presence of bacitracin in the ration. It is important to note that the negative controls in this example and in Examples VIII and X which follow were characterized by rapid rates of growth. This high plane of growth and feed efficiency performance on the part of the negative controls makes the responses to the test compounds all the more meaningful.
The term "growth promotion" is used herein to describe the beneficial effect of a compound in eliciting a more rapid rate of weight gain when compared to the weight gain of control animals not fed the compound. "Feed efficiency" is a term regularly used in animal husbandry and is a measure of the pounds of feed required to produce a pound of gain in the weight of the animal. A lower mathmatical value for feed efficiency reflects improved performance. […] In this case, as in the case of the weight gain (fifth column), an improved performance is indicated by a higher positive number.

[7] = 25 g/T in basal ration, 4 weeks

O=[N+]([O-])c1ccc(C=Cc2nc(Nc3ccccc3)c3ccccc3n2)o1 [Example IV, 2-[2-(5-nitro-2-furyl)vinyl]-4-anilinoquinazoline]
inhibition of growth at 0.007 ppm (Salmonella cholerasuis; 0.007 ppm): 0%
inhibition of growth at 0.01 ppm (Salmonella cholerasuis; 0.01 ppm): 0%
inhibition of growth at 0.03 ppm (Salmonella cholerasuis; 0.03 ppm): 0%
inhibition of growth at 0.06 ppm (Salmonella cholerasuis; 0.06 ppm): 0%
inhibition of growth at 0.125 ppm (Salmonella cholerasuis; 0.125 ppm): 0%
inhibition of growth at 0.25 ppm (Salmonella cholerasuis; 0.25 ppm): 0%
inhibition of growth at 0.5 ppm (Salmonella cholerasuis; 0.5 ppm): 0%
inhibition of growth at 1 ppm (Salmonella cholerasuis; 1 ppm): 50%
inhibition of growth at 2 ppm (Salmonella cholerasuis; 2 ppm): 50%
inhibition of growth at 4 ppm (Salmonella cholerasuis; 4 ppm): 50%
effectiveness compared with chlortetracycline (in words) (Streptococcus agalactiae): considerably more effective
effectiveness compared with chlortetracycline (in words) (Streptococcus group E): considerably more effective
effectiveness compared with chlortetracycline (in words) [1]: considerably more effective
effectiveness compared with chlortetracycline (in words) [2]: considerably more effective
inhibition of growth at 0.007 ppm (Salmonella gallinarum; 0.007 ppm): 0%
inhibition of growth at 0.01 ppm (Salmonella gallinarum; 0.01 ppm): 0%
inhibition of growth at 0.03 ppm (Salmonella gallinarum; 0.03 ppm): 0%
inhibition of growth at 0.06 ppm (Salmonella gallinarum; 0.06 ppm): 0%
inhibition of growth at 0.125 ppm (Salmonella gallinarum; 0.125 ppm): 0%
inhibition of growth at 0.25 ppm (Salmonella gallinarum; 0.25 ppm): 100%
inhibition of growth at 0.5 ppm (Salmonella gallinarum; 0.5 ppm): 100%
inhibition of growth at 1 ppm (Salmonella gallinarum; 1 ppm): 100%
inhibition of growth at 2 ppm (Salmonella gallinarum; 2 ppm): 100%
inhibition of growth at 4 ppm (Salmonella gallinarum; 4 ppm): 100%
effectiveness compared with chlortetracycline (in words) (Streptococcus faecalis): considerably more effective
effectiveness compared with chlortetracycline (in words) (Vibrio coli): considerably more effective

[O-][n+]1cc[n+]([O-])c2ccccc21 [Quinoxaline-1,4-dioxide, quinoxaline-1,4-dioxide]
feed efficiency (in words) [3]: improvement in feed efficiency
growth rate (in words) [3]: questionable effect on growth
Average 4 Week Performance: Feed Efficiency [3]: 1.709
Average 4 Week Performance: Gain [3]: 740.8 g
Improved Response Over Basal Ration: Feed Efficiency [3]: +5.2%
Improved Response Over Basal Ration: Gain [3]: +1.1%
effect on feed efficiency (in words) ([4]; 25 g/T): did not have any apparent effect
growth response (in words) ([4]; 25 g/T): did not have any apparent effect
Average 4 Week Performance: Feed Efficiency [4, 7]: 1.550
Average 4 Week Performance: Gain [4, 7]: 756.6 g
Improved Response Over Basal Ration: Feed Efficiency [4, 7]: +0.1%
Improved Response Over Basal Ration: Gain [4, 7]: -1.1%

CC[C@H](C)[C@H](N)C1=N[C@H](C(=O)N[C@@H](CC(C)C)C(=O)N[C@H](CCC(=O)O)C(=O)N[C@H](C(=O)N[C@H]2CCCCNC(=O)[C@H](CC(N)=O)NC(=O)[C@@H](CC(=O)O)NC(=O)[C@H](Cc3cnc[nH]3)NC(=O)[C@@H](Cc3ccccc3)NC(=O)[C@H]([C@@H](C)CC)NC(=O)[C@@H](CCCN)NC2=O)[C@@H](C)CC)CS1 [Bacitracin] ({Ileψ(thiazoline)Cys}-L[dE]IK[dOrn]I[dF]H[dD]N; lactam 4-C)
feed efficiency (in words) [3]: moderate improvements in feed efficiencies
growth rate (in words) [3]: slight improvements in growth rates
Average 4 Week Performance: Feed Efficiency [3]: 1.746
Average 4 Week Performance: Gain [3]: 741.3 g
Improved Response Over Basal Ration: Feed Efficiency [3]: +3.1%
Improved Response Over Basal Ration: Gain [3]: +1.2%
Average 4 Week Performance: Feed Efficiency [5]: 1.739
Average 4 Week Performance: Gain [5]: 703.6 g
Improved Response Over Basal Ration: Feed Efficiency [5]: +1.2%
Improved Response Over Basal Ration: Gain [5]: -2.3%
Average 4 Week Performance: Feed Efficiency [6]: 1.721
Average 4 Week Performance: Gain [6]: 694.5 gms
